# In PubChem BioAssay (NCI):
#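 Each compound was tested at five concentrations against cells in 96-well plates for 48 hours. GI50 is the concentration that inhibits growth by half. Definition used: TGI = concentration required for complete inhibition of growth.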
# Assays:
# Assay in all cases: growth of human tumour cells (NCI), 48 h
# 786-0 renal = test system: 786-0 renal
# A498 renal = test system: A498 renal
# A549 NSCLC = test system: A549 NSCLC
# ACHN renal = test system: ACHN renal
# BT-549 breast = test system: BT-549 breast
# CAKI-1 renal = test system: CAKI-1 renal
# CCRF-CEM leukemia = test system: CCRF-CEM leukemia
# COLO 205 colon = test system: COLO 205 colon
# DU-145 prostate = test system: DU-145 prostate
# EKVX NSCLC = test system: EKVX NSCLC
# HCC-2998 colon = test system: HCC-2998 colon
# HCT-116 colon = test system: HCT-116 colon
# HCT-15 colon = test system: HCT-15 colon
# HL-60(TB) leukemia = test system: HL-60(TB) leukemia
# HOP-62 NSCLC = test system: HOP-62 NSCLC
# HOP-92 NSCLC = test system: HOP-92 NSCLC
# HS 578T breast = test system: HS 578T breast
# HT29 colon = test system: HT29 colon
# IGROV1 ovarian = test system: IGROV1 ovarian
# K-562 leukemia = test system: K-562 leukemia
# KM12 colon = test system: KM12 colon
# LOX IMVI melanoma = test system: LOX IMVI melanoma
# M14 melanoma = test system: M14 melanoma
# MALME-3M melanoma = test system: MALME-3M melanoma
# MCF7 breast = test system: MCF7 breast
# MDA-MB-231 breast = test system: MDA-MB-231 breast
# MDA-MB-435 = test system: MDA-MB-435
# MOLT-4 leukemia = test system: MOLT-4 leukemia
# NCI-H226 lung = test system: NCI-H226 lung
# NCI-H23 lung = test system: NCI-H23 lung
# NCI-H460 lung = test system: NCI-H460 lung
# NCI-H522 lung = test system: NCI-H522 lung
# NCI/ADR-RES ovarian = test system: NCI/ADR-RES ovarian
# OVCAR-3 ovarian = test system: OVCAR-3 ovarian
# OVCAR-4 ovarian = test system: OVCAR-4 ovarian
# OVCAR-5 ovarian = test system: OVCAR-5 ovarian
# OVCAR-8 ovarian = test system: OVCAR-8 ovarian
# PC-3 prostate = test system: PC-3 prostate
# RPMI-8226 leukemia = test system: RPMI-8226 leukemia
# RXF 393 renal = test system: RXF 393 renal
# SF-268 CNS = test system: SF-268 CNS
# SF-295 CNS = test system: SF-295 CNS
# SF-539 CNS = test system: SF-539 CNS
# SK-MEL-2 melanoma = test system: SK-MEL-2 melanoma
# SK-MEL-28 melanoma = test system: SK-MEL-28 melanoma
# SK-MEL-5 melanoma = test system: SK-MEL-5 melanoma
# SK-OV-3 ovarian = test system: SK-OV-3 ovarian
# SN12C renal = test system: SN12C renal
# SNB-19 CNS = test system: SNB-19 CNS
# SNB-75 CNS = test system: SNB-75 CNS
# SR leukemia = test system: SR leukemia
# SW-620 colon = test system: SW-620 colon
# T-47D breast = test system: T-47D breast
# TK-10 renal = test system: TK-10 renal
# U251 CNS = test system: U251 CNS
# UACC-257 melanoma = test system: UACC-257 melanoma
# UACC-62 melanoma = test system: UACC-62 melanoma
# UO-31 renal = test system: UO-31 renal
smiles,measurement,setting,value
NCCOc1ncccc1/C=C1\c2ccccc2-c2ccc([N+](=O)[O-])cc21,GI50,786-0 renal,26.8 nM
same,TGI,786-0 renal,139 nM
same,GI50,A498 renal,158 nM
same,TGI,A498 renal,578 nM
same,GI50,A549 NSCLC,< 10 nM
same,TGI,A549 NSCLC,204 nM
same,GI50,ACHN renal,23.5 nM
same,TGI,ACHN renal,119 nM
same,GI50,BT-549 breast,181 nM
same,TGI,BT-549 breast,994 nM
same,GI50,CAKI-1 renal,28.3 nM
same,TGI,CAKI-1 renal,231 nM
same,GI50,CCRF-CEM leukemia,18.1 nM
same,TGI,CCRF-CEM leukemia,97.3 nM
same,GI50,COLO 205 colon,137 nM
same,TGI,COLO 205 colon,343 nM
same,GI50,DU-145 prostate,19.3 nM
same,TGI,DU-145 prostate,224 nM
same,GI50,EKVX NSCLC,116 nM
same,TGI,EKVX NSCLC,474 nM
same,GI50,HCC-2998 colon,137 nM
same,TGI,HCC-2998 colon,322 nM
same,GI50,HCT-116 colon,45.5 nM
same,TGI,HCT-116 colon,237 nM
same,GI50,HCT-15 colon,26.6 nM
same,TGI,HCT-15 colon,871 nM
same,GI50,HL-60(TB) leukemia,16.5 nM
same,TGI,HL-60(TB) leukemia,121 nM
same,GI50,HOP-62 NSCLC,26.1 nM
same,TGI,HOP-62 NSCLC,133 nM
same,GI50,HOP-92 NSCLC,23.4 nM
same,TGI,HOP-92 NSCLC,477 nM
same,GI50,HS 578T breast,255 nM
same,TGI,HS 578T breast,1260 nM
same,GI50,HT29 colon,89.8 nM
same,TGI,HT29 colon,1040 nM
same,GI50,IGROV1 ovarian,131 nM
same,TGI,IGROV1 ovarian,728 nM
same,GI50,K-562 leukemia,33.7 nM
same,TGI,K-562 leukemia,1230 nM
same,GI50,KM12 colon,110 nM
same,TGI,KM12 colon,546 nM
same,GI50,LOX IMVI melanoma,24.3 nM
same,TGI,LOX IMVI melanoma,163 nM
same,GI50,M14 melanoma,43.9 nM
same,TGI,M14 melanoma,322 nM
same,GI50,MALME-3M melanoma,55 nM
same,TGI,MALME-3M melanoma,275 nM
same,GI50,MCF7 breast,< 10.9 nM
same,TGI,MCF7 breast,409 nM
same,GI50,MDA-MB-231 breast,206 nM
same,TGI,MDA-MB-231 breast,613 nM
same,GI50,MDA-MB-435,161 nM
same,TGI,MDA-MB-435,362 nM
same,GI50,MOLT-4 leukemia,< 10 nM
same,TGI,MOLT-4 leukemia,74.6 nM
same,GI50,NCI-H226 lung,110 nM
same,TGI,NCI-H226 lung,366 nM
same,GI50,NCI-H23 lung,47.9 nM
same,TGI,NCI-H23 lung,413 nM
same,GI50,NCI-H460 lung,< 10.4 nM
same,TGI,NCI-H460 lung,154 nM
same,GI50,NCI-H522 lung,68.4 nM
same,TGI,NCI-H522 lung,438 nM
same,GI50,NCI/ADR-RES ovarian,154 nM
same,TGI,NCI/ADR-RES ovarian,1120 nM
same,GI50,OVCAR-3 ovarian,181 nM
same,TGI,OVCAR-3 ovarian,449 nM
same,GI50,OVCAR-4 ovarian,194 nM
same,TGI,OVCAR-4 ovarian,827 nM
same,GI50,OVCAR-5 ovarian,211 nM
same,TGI,OVCAR-5 ovarian,680 nM
same,GI50,OVCAR-8 ovarian,68.6 nM
same,TGI,OVCAR-8 ovarian,705 nM
same,GI50,PC-3 prostate,177 nM
same,TGI,PC-3 prostate,1110 nM
same,GI50,RPMI-8226 leukemia,38.3 nM
same,TGI,RPMI-8226 leukemia,317 nM
same,GI50,RXF 393 renal,171 nM
same,TGI,RXF 393 renal,443 nM
same,GI50,SF-268 CNS,82.7 nM
same,TGI,SF-268 CNS,619 nM
same,GI50,SF-295 CNS,24.6 nM
same,TGI,SF-295 CNS,161 nM
same,GI50,SF-539 CNS,135 nM
same,TGI,SF-539 CNS,362 nM
same,GI50,SK-MEL-2 melanoma,314 nM
same,TGI,SK-MEL-2 melanoma,754 nM
same,GI50,SK-MEL-28 melanoma,241 nM
same,TGI,SK-MEL-28 melanoma,1060 nM
same,GI50,SK-MEL-5 melanoma,101 nM
same,TGI,SK-MEL-5 melanoma,253 nM
same,GI50,SK-OV-3 ovarian,48.9 nM
same,TGI,SK-OV-3 ovarian,309 nM
same,GI50,SN12C renal,28.4 nM
same,TGI,SN12C renal,178 nM
same,GI50,SNB-19 CNS,35.6 nM
same,TGI,SNB-19 CNS,1040 nM
same,GI50,SNB-75 CNS,48.8 nM
same,TGI,SNB-75 CNS,437 nM
same,GI50,SR leukemia,< 10 nM
same,TGI,SR leukemia,1100 nM
same,GI50,SW-620 colon,72.5 nM
same,TGI,SW-620 colon,834 nM
same,GI50,T-47D breast,28.3 nM
same,TGI,T-47D breast,305 nM
same,GI50,TK-10 renal,126 nM
same,TGI,TK-10 renal,282 nM
same,GI50,U251 CNS,26.9 nM
same,TGI,U251 CNS,303 nM
same,GI50,UACC-257 melanoma,209 nM
same,TGI,UACC-257 melanoma,1390 nM
same,GI50,UACC-62 melanoma,78.4 nM
same,TGI,UACC-62 melanoma,386 nM
same,GI50,UO-31 renal,43.9 nM
same,TGI,UO-31 renal,186 nM
